Assay results from patent US20230065158A1, “OXABICYCLOHEPTANES FOR TREATMENT OF SMALL CELL LUNG CANCER” (Lixte Biotechnology, Inc., priority 2021, published 2023).

Assays:
[1] = system: H524 cells; experiment: Seahorse XF Cell Energy Phenotype Test; assay type: cell-based; details: LB100 2.5 μM
Experimental: FIGS. 5A-5F depict the effect of LB-100 on cell energy phenotype in SCLC cells. FIG. 5A: LB100 treatment (2.5 μM) induced metabolic switch in H524 cells. Cell energy phenotype was obtained by using XF Cell Energy Phenotype Reporter Generator. Empty squares indicate baseline energy phenotype, solid squares represent stressed energy phenotype measured after oligomycin/FCCP injection. FIGS. 5B and 5C: OCR and ECARin control (blue circles) and LB-100 (orange circles) H524 cells were measured overtime. (n=2, six different wells for each […]). FIG. 5D: Effect of LB-100 (10 μM) on H69 cell energy phenotype. FIGS. 5E and 5F: Effect of mitochondrial stressor on OCR and ECAR in H69 cells. Blue circles indicate control and orange circles show LB-100 treatment. (n=2, six technical replicates).
Next, we determined the effect of LB100 on ATP production in SCLC cells employing the Seahorse XF Cell Energy Phenotype Test. […] After drug treatment, we counted the number of cells and examined them for viability using exclusion of trypan blue as a readout. Cellular basal oxygen consumption rate (OCR) and extra-cellular acidification rate (ECAR) measurements were determined on a Seahorse XF96 analyzer. […]

[2] = system: H446 spheroids; experiment: H446 spheroid growth, IncuCyte Live-Cell Analysis; assay type: cell-based; details: LB100 20 μM, up to 72 hours
Experimental: FIGS. 2A-2H depict the effect of LB-100 on H446 spheroid growth. FIG. 2A: Morphology of a single spheroid of H446 cells on days one and nine. Spheroids grow continuously and H&E staining is represented. FIG. 2B: Spheroid's growth in response to LB-100 treatment was recorded with IncuCyte Live-Cell Analysis System. FIG. 2C: Cytotoxicity effect of LB100 was recorded with IncuCyte Live-Cell Analysis System in the presence of LB-100 and IncuCyte Cytotox reagent in green fluorescence. […] Scale bar 100 μm. (FIGS. 2E and 2G). Effect of LB100 and carboplatin alone or in combination was monitored using IncuCyte Live Cell system for 70 h.
We further investigated the effect of LB100 and the chemotherapy drugs on spheroids formed by SCLC cells. Three cell lines H524, H69 and H446 were tested. The H524 and H69 cells formed large soft clumps in low-attachment 96 well plates. […] H446 spheroids treated with or without 20 μM LB100 were imaged in brightfield (BF) and using green fluorescence over 72 hours. The size of the spheroids was measured using an automated software algorithm that masked the largest BF in the field of view (label-free, real-time live cell assay for spheroids: IncuCyte bright-field analysis). […]
H446 cells were plated at a density of 10,000 cells per well and spheroid allowed to form (72-hours). […] Spheroids were imaged every 4 hours for 6 days and analyzed using the IncuCyte ZOOM software.

`C[NH+]1CCN(C(=O)C2C(C(=O)O)[C@H]3CC[C@@H]2O3)CC1` (stereo in doubt) [LB-100, 3-[(4-Methylpiperazin-1-yl)carbonyl]-7-oxabicyclo[2.2.1]heptane-2-carboxylic acid] was tested, and the “basal OCR lower compared to untreated cells” value [1] was 4 fold and the “spheroid size (bright-field analysis)” value [2] was “spheroid shrinkage”.
